Values joined by “and” are separate entries in the source; they are usually repeats but may differ in a detail not shown here. Identical values can stand only once. Active and inactive are the calls of the source. No rule for the calls is given here.
Biological target: AddAB helicase-nuclease (Helicobacter pylori 26695)
Assay: AddAB nuclease inhibitors, potency, late-stage follow-up, biochemical, radioactivity, purified enzyme, IC50 (AID 602421)
Details: radioactive DNA degradation

Compound | IC50
CCn1cc(C(=O)O)c(=O)c2cnc(N3CCN(C(=S)Nc4cccc(C(F)(F)F)c4)CC3)nc21 | 27 µM
CCn1cc(C(=O)O)c(=O)c2cc(F)c(N3CCN(C(=S)Nc4cccc(C(F)(F)F)c4)CC3)cc21 | 11 µM
N#Cc1c(NC(=O)c2ccccc2C(=O)O)sc2c1CCCC2 | > 100 µM (inactive)
Cc1sc(NC(=O)c2ccc(Br)o2)c(C#N)c1C | 25 µM
O=C(OCC(=O)c1cccs1)c1ccc([N+](=O)[O-])o1 | > 100 µM (inactive)
CC1(C)Cc2c(sc(NC(=O)c3ccco3)c2C#N)CO1 | > 100 µM (inactive)
C=CCn1c(Sc2ncc([N+](=O)[O-])s2)n[nH]c1=O | 93 µM
N#Cc1c(NC(=O)c2ccco2)sc2c1CCC2 | 36 µM
N#Cc1c(NC(=O)c2ccc(-c3ccccc3[N+](=O)[O-])o2)sc2c1CCCC2 | > 100 µM (inactive)
O=C(Nc1ncccn1)c1ccc([N+](=O)[O-])o1 | > 100 µM (inactive)
N#Cc1c(NC(=O)c2ccc([N+](=O)[O-])o2)sc2c1CCC2 | 96 µM
O=C(Nc1ccc(N2CCOCC2)cc1)c1ccc([N+](=O)[O-])o1 | > 100 µM (inactive)
Cc1cccnc1NC(=O)c1ccc([N+](=O)[O-])o1 | > 166 µM (inactive)
Cc1ccc(C(=O)Nc2sc3c(c2C#N)CCCCC3)o1 | > 100 µM (inactive)
CCn1cc(C(=O)O)c(=O)c2cnc(N3CCN(C(=S)Nc4ccccc4C(F)(F)F)CC3)nc21 | 34 µM and > 100 µM (inactive)
N#Cc1c(NC(=O)c2ccc([N+](=O)[O-])o2)sc2c1CCCC2 | > 100 µM (inactive)
N#Cc1c(NC(=O)c2cnccn2)sc2c1CCCC2 | 17 µM

Now from value to compound:

IC50 | Compound
inactive | CCn1cc(C(=O)O)c(=O)c2cnc(N3CCN(C(=S)NCc4ccccc4)CC3)nc21
> 100 µM (inactive) | NC(=O)c1ccsc1NC(=O)COC(=O)c1ccc([N+](=O)[O-])o1
79 µM | CCn1cc(C(=O)O)c(=O)c2cc(F)c(N3CCN(C(=S)Nc4ccccc4C(F)(F)F)CC3)cc21
inactive | CCn1cc(C(=O)O)c(=O)c2cnc(N3CCN(C(=S)NC(=O)c4cccc(C)c4)CC3)nc21
> 166 µM (inactive) | Cc1ccc2nc(/C(C#N)=C\c3ccc([N+](=O)[O-])o3)[nH]c2c1
55 µM | CNC(=O)c1c(NC(=O)c2nc(SCc3ccccc3)ncc2Cl)sc2c1CCCC2
11 µM | COC(=O)c1c(-c2ccccc2)csc1NC(=O)c1cnccn1
> 100 µM (inactive) | O=C(Nc1cccc(NC(=O)c2ccccc2Cl)c1)c1ccc([N+](=O)[O-])o1
> 100 µM (inactive) | N#Cc1c(NC(=O)c2ccccc2)sc2c1CCC2
> 100 µM (inactive) | N#Cc1c(NC(=O)c2cccc(F)c2)sc2c1CCCC2
> 100 µM (inactive) | O=C(NCc1cccnc1)c1ccc([N+](=O)[O-])o1
